Data from PubChem BioAssay (NCI).
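48-hour exposure; five concentrations; linearly interpolated endpoints. The concentration for 50% growth inhibition is given as GI50. At the TGI there is no net growth.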

Legend:
Experiment in all cases: NCI anticancer screen, dose series, 48 h
HCT-15 colon = system: HCT-15 colon
UO-31 renal = system: UO-31 renal
MDA-MB-435 = system: MDA-MB-435
SW-620 colon = system: SW-620 colon
ACHN renal = system: ACHN renal
EKVX NSCLC = system: EKVX NSCLC
OVCAR-8 ovarian = system: OVCAR-8 ovarian
LOX IMVI melanoma = system: LOX IMVI melanoma
SF-539 CNS = system: SF-539 CNS
HCC-2998 colon = system: HCC-2998 colon

Structure (SMILES) | TGI (HCT-15 colon) | TGI (UO-31 renal) | TGI (MDA-MB-435) | TGI (SW-620 colon) | TGI (ACHN renal) | TGI (EKVX NSCLC) | TGI (OVCAR-8 ovarian) | TGI (LOX IMVI melanoma) | TGI (SF-539 CNS) | GI50 (HCT-15 colon) | GI50 (UO-31 renal) | GI50 (HCC-2998 colon) | TGI (HCC-2998 colon) | GI50 (MDA-MB-435) | GI50 (SW-620 colon) | GI50 (ACHN renal) | GI50 (OVCAR-8 ovarian) | GI50 (LOX IMVI melanoma) | GI50 (SF-539 CNS) | GI50 (EKVX NSCLC)
OCCCN=C1CCCCC1 | > 100 µM | > 100 µM | > 100 µM | > 100 µM | > 100 µM | > 100 µM | > 100 µM | > 100 µM | > 100 µM | – | – | – | – | – | – | – | – | – | – | –
O=[N+]([O-])c1cccc(/C=N/Nc2ccc3ccccc3n2)c1O | > 100 µM | 3 µM | 20.1 µM | > 48.4 µM | – | 39.1 µM | > 39 µM | 12.7 µM | 8.91 µM | – | – | – | – | – | – | – | – | – | – | –
Cn1c(=O)c(-c2ccccc2Cl)cc2cnc(NC3CCOCC3)nc21 | > 25 µM | > 22.4 µM | > 25 µM | > 25 µM | > 25 µM | – | > 25 µM | > 25 µM | > 25 µM | 9.82 µM | 6.8 µM | > 21.8 µM | > 25 µM | 7.22 µM | 14.8 µM | 4.64 µM | 10.2 µM | 5.49 µM | 11.1 µM | –
C[N+](C)(C)CC1CCC(C[N+](C)(C)C)C1=NO (stereo not drawn) | > 100 µM | > 100 µM | – | > 100 µM | > 100 µM | > 100 µM | > 100 µM | > 100 µM | > 100 µM | – | – | – | – | – | – | – | – | – | – | –
COc1cc2c(c(OC)c1OC)-c1cc(I)c(O)cc1[C@@H](NC(C)=O)CC2 | > 100 µM | – | – | > 100 µM | > 100 µM | > 100 µM | > 100 µM | > 100 µM | 0.178 µM | 0.118 µM | 0.556 µM | 0.0655 µM | 3 µM | – | 0.039 µM | 0.383 µM | 0.187 µM | 0.075 µM | 0.0314 µM | 0.419 µM
COC(=O)Cc1cc(=O)n2c3ccccc3n(C)c2c1C#N | > 100 µM | > 100 µM | – | > 100 µM | > 100 µM | > 100 µM | > 100 µM | > 100 µM | > 100 µM | – | – | – | > 100 µM | – | – | – | – | – | – | –
CC(C)c1ccc(O)c(Cc2cc(C(C)C)cc(Cc3cc(C(C)C)ccc3O)c2O)c1 | 3.24 µM | 3.04 µM | – | 3.09 µM | 10.8 µM | 8.95 µM | 4.18 µM | – | – | – | – | – | 3.2 µM | – | – | – | – | – | – | –
FC(F)(F)c1ccccc1C1SCc2nc3ccccc3n21 (stereo not drawn) | – | > 100 µM | – | > 100 µM | > 100 µM | > 100 µM | > 100 µM | – | > 100 µM | – | – | – | > 100 µM | – | – | – | – | – | – | –
CCn1cc(C(=O)O)c(=O)c2cc(F)c(N3CCN(S(=O)(=O)c4ccc(Cl)cc4Cl)CC3)cc21 | > 100 µM | 5.77 µM | 4.44 µM | > 100 µM | 7.68 µM | – | 29 µM | 3.08 µM | 4.07 µM | 2.82 µM | 2.2 µM | 2.29 µM | 5.17 µM | 1.97 µM | 3.91 µM | 2.62 µM | 3.3 µM | 1.48 µM | 1.92 µM | –
COc1cc(-c2nc(-c3ccccc3)c(-c3ccccc3)[nH]2)cc(OC)c1O | 41.4 µM | 31 µM | 28.4 µM | 33.1 µM | 33.1 µM | – | 83.2 µM | 32.6 µM | 30.8 µM | 13.3 µM | 13.2 µM | 17.1 µM | 32.7 µM | 14.5 µM | 16.6 µM | 14.2 µM | 26.5 µM | 17.2 µM | 15.8 µM | –
CC(=O)CCC1(c2ccccc2)OC(=O)C(C#N)=C1c1ccccc1 (stereo not drawn) | > 100 µM | > 100 µM | – | > 100 µM | > 100 µM | > 100 µM | > 100 µM | > 100 µM | > 100 µM | – | – | – | > 100 µM | – | – | – | – | – | – | –
O=c1ccc(N=Nc2ccccc2)ccc1O | 19.8 µM | 70.9 µM | 30.7 µM | 22.5 µM | 26 µM | 81.1 µM | 43.9 µM | 17.4 µM | 37.2 µM | – | – | – | – | – | – | – | – | – | – | –
N=C(N)c1ccc2oc3ccc(C(=N)N)cc3c(=O)c2c1 | > 100 µM | > 100 µM | > 100 µM | > 100 µM | > 100 µM | – | > 100 µM | – | > 100 µM | – | – | – | > 100 µM | – | – | – | – | – | – | –
Cc1cc(N(CCC#N)CCC#N)ccc1/C=C(\NC(=O)/C=C/c1ccccc1)C(=O)Nc1ccccc1Cl | > 100 µM | > 100 µM | – | > 100 µM | > 100 µM | > 100 µM | > 100 µM | > 100 µM | > 100 µM | – | – | – | > 100 µM | – | – | – | – | – | – | –
COc1ccc(-c2nsc3c2NC(=O)CC3c2ccsc2)cc1 (stereo not drawn) | > 100 µM | > 100 µM | 0.0644 µM | > 100 µM | > 100 µM | – | > 25.2 µM | > 100 µM | – | 0.101 µM | 1.84 µM | 0.528 µM | > 22.7 µM | 0.0235 µM | 0.0684 µM | 1.06 µM | 0.409 µM | 0.422 µM | 0.266 µM | –
CCCCCCCCCCCCCCCCCc1nc(Cl)nc(Cl)c1Cl | > 100 µM | > 100 µM | > 100 µM | > 100 µM | > 100 µM | – | > 100 µM | > 100 µM | > 100 µM | – | – | – | > 100 µM | – | – | – | – | – | – | –
Fc1ccccc1CN1COc2c(cc(Cl)c3cccnc23)C1 | 2.23 µM | 17.7 µM | 8.27 µM | 18.4 µM | 10.3 µM | 2.72 µM | 10.7 µM | – | 10.6 µM | – | – | – | – | – | – | – | – | – | – | –
O=C1C(Cl)=C(Nc2ccc(S(=O)(=O)c3ccc(NC4=C(Cl)C(=O)c5ccccc5C4=O)cc3)cc2)C(=O)c2ccccc21 | – | 2.85 µM | – | – | 2.69 µM | 9.07 µM | – | 3.1 µM | 3.71 µM | – | 1.38 µM | 2.82 µM | 6.33 µM | – | – | 1.31 µM | – | 1.49 µM | 1.91 µM | 2.36 µM
Cn1cc(-c2cc(-c3cn(C)c4ccccc34)[nH]n2)c2ccccc21 | > 100 µM | > 100 µM | – | > 100 µM | > 100 µM | > 100 µM | > 100 µM | > 100 µM | 44.3 µM | 8.68 µM | 37.6 µM | 4.74 µM | > 100 µM | – | > 100 µM | 7.68 µM | 28.8 µM | 5.38 µM | 16.2 µM | 27.2 µM
